Test [1] has as its target T1, Human thrombin (Homo sapiens, UniProt P00734).
T1 construct: Human thrombin stock solution; purchased Enzyme Research Lab
As to the kind of experiment: In vitro chromogenic assay for thrombin. Format: biochemical. Particulars: substrate concentration stated equal to Km; 20 nM thrombin, pH 7.5, ambient temperature; read-out: Km (S2302). On the procedure: (§1) The activities were determined as an initial rate of cleavage of the peptide p-nitroanilide by the enzyme. The cleavage product, p-nitroaniline, absorbs at 405 nm with a molar extinction coefficient of 9920 M^-1 cm^-1.
(§2) 50 mM TrisHCl, 150 mM NaCl, 2.5 mM CaCl2, and 0.1% polyethylene glycol 6000, pH 7.5.
2. Human thrombin stock solution: Stored at -80° C. (working solution (2×): 1200 ng/mL or 40 nM in assay buffer, prepare prior to use).
2. S2302 (Thrombin assay) stock solution: 10 mM in dH2 O, stored at 4° C. (working solution (4×): 1200 μM in assay buffer).
Assays were performed in 96-well microtiter plates in a total volume of 200 μl. […] Concentrations of the standard inhibitor compound in the assay were from 5 μM to 0.021 μM in 1 to 3 dilution. Concentration of the test compounds in the assay typically were from 10 μM to 0.041 μM in 1 to 3 dilution. For potent test compounds, the concentrations used in the factor Xa assays were further diluted 100 fold (100 nM to 0.41 nM) or 1000 fold (10 nM to 0.041 nM). […]
(§3) The enzyme kinetics were measured at 405 nm at 10 seconds intervals for five minutes in a THERMOmax plate reader at ambient temperature.
(§4) Enzyme rates were calculated as mOD/min based on the first two minutes readings. The IC50 values were determined by fitting the data to the log-logit equation (linear) or the Morrison equation (non-linear) with an EXCEL spread-sheet. […]

The target in test [2] is T2, Human tissue plasminogen activator (tPA) (Two chains, Sigma) (Homo sapiens, UniProt P00750).
T2 construct: purchased Sigma
T2 sequence (P00750 311-562 limits assumed): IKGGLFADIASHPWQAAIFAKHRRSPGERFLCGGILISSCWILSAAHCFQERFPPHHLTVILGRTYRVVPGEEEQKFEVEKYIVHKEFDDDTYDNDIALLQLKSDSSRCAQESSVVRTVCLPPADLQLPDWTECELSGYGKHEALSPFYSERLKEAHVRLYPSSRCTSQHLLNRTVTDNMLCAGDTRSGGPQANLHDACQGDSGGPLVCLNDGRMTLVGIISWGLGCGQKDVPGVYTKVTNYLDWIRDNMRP
T2 sequence (P00750 36-310 partner limits assumed): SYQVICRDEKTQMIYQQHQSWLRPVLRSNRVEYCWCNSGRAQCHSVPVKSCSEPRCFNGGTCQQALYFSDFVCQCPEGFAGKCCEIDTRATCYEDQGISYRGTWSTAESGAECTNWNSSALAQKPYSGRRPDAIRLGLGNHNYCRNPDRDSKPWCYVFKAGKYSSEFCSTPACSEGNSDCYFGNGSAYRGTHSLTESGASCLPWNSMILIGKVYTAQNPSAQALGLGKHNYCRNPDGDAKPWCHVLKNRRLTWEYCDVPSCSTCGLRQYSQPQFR
Briefly: In vitro chromogenic assay for tissue plasminogen activator. Type of test: biochemical. Particulars: substrate concentration stated equal to Km; 10 nM tPA, pH 7.5, ambient temperature; read-out: Km (S2288). As for the experimental part: as §1, §2
3. Human tissue plasminogen activator (tPA) (Two chains, Sigma) stock solution: 1 mg/mL, stored at -80° C. (working solution (2×): 1361 ng/mL in assay buffer, prepare prior to use).
3. S2288 (tPA assay) stock solution: 10 mM in dH2 O, stored at 4° C. (working solution (4×):
1484 μM in assay buffer).
Assays were performed in 96-well microtiter plates in a total volume of 200 μl. […] Concentrations of the standard inhibitor compound in the assay were from 5 μM to 0.021 μM in 1 to 3 dilution. Concentration of the test compounds in the assay typically were from 10 μM to 0.041 μM in 1 to 3 dilution. […]
as §3, §4

Non-standard residues stand in square brackets, D forms with d. Residues, ends and D or L forms follow the SMILES beside them. *: point of attachment. pNA = O=[N+]([O-])c1ccc(N*)cc1

For orientation: Km means the concentration of substrate that gives half-maximal velocity. Turning to `N=C(N)NCCC[C@H](NC(=O)[C@H](Cc1ccccc1)NC(=O)[C@H]1CCCN1)C(=O)Nc1ccc([N+](=O)[O-])cc1` [Example S2302] (H-[dP]-Phe-Arg-pNA), in test [1], the Km is 300 µM. Turning to `CC[C@@H](C)[C@@H](N)C(=O)N1CCC[C@H]1C(=O)N[C@@H](CCCN=C(N)N)C(=O)Nc1ccc([N+](=O)[O-])cc1` [Example S2288] (H-[dI]-Pro-Arg-pNA), the Michaelis-Menten constant (Km) in test [2] amounted to 371 µM.

For the origin of these results see patent publication US5753635A, “Purine derivatives and their use as anti-coagulants” (Berlex Laboratories, Inc., priority 1996, dated 1998).
